Experimental data from patent US20060069038A1, “Irreversible caspase-3 inhibitors as active site probes” (priority 2003, published 2006).
Changes are numbered by the printed parent chain.

Assays:
[1] = target: T1, purified recombinant human caspase-3 (Homo sapiens, UniProt P42574); test: DEVD-AMC cleavage activity with recombinant human caspase-3 pre-incubated with inhibitor; format: biochemical; settings: purified recombinant caspase-3 pre-incubated with increasing amounts of M791
T1 construct: Active site shared between large and small caspase subunit
T1 sequence (P42574 29-175 limits assumed): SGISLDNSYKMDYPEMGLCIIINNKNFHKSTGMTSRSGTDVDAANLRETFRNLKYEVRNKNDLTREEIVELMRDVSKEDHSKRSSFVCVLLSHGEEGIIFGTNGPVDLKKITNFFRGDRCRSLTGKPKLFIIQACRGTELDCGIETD
T1 sequence (P42574 176-277 limits assumed): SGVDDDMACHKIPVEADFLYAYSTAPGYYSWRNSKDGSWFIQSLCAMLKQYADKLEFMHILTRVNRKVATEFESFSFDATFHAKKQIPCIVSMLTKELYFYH
Experimental: FIG. 3. Potency assessment caspase inhibitors by [^125]-M808 labeling and by DEVD-AMC cleavage activity. A, B-Caspase inhibitor titration and [^125]-M808 labeling with purified recombinant human caspase-3. A-M791 with 5 minute labeling reaction and M791 with 60 minute labeling reaction. In A, the indicated IC50 was defined as the concentration of M791 that reduced the intensity of [^125I]-M808-labeled p17 subunit of caspase-3 by 50%. B-Caspase inhibitor titration and DEVD-AMC cleavage activity with recombinant human caspase-3 that had been incubated with indicated concentration of M791. Under the fluorogenic assay conditions Ki=IC50/2.
Tissues (rat liver, kidney, brain, thymus, mouse thymus) were either frozen or processed within 20 minutes of their removal. Rat tissues and cultured cells were homogenized in ice cold cell lysis buffer (50 mM Tris-Cl pH 7.5, 2 mM EDTA, 1% NP-40) supplemented with 5 mM DTT and Complete protease inhibitor cocktail (Roche). Thymi from mice injected with [^125I]-M808 were homogenized in lysis buffer supplemented with 25 μM of M808. Nuclear debris was removed by centrifugation at 13000 rpm for 10 min and the soluble fraction quantitated by Bradford assay (Bio-Rad). Caspase-3 like activity was determined with the fluorogenic substrate Ac-DEVD-AMC as described by Roy et al. (2001) Proc. Nat. Acad. Sci. USA 98: 6132-6137. […]

caspase-3 = target: T2, caspase-3 (Rattus norvegicus, UniProt P55213); test: Caspase-3 western blot in cultured rat thymocytes; format: cell-based; settings: FIG. 5B
T2 construct: endogenous in cells; host or cells: primary rat thymocytes (Sprague-Dawley), spontaneous apoptosis in culture
T2 sequence (P55213 29-175 limits assumed): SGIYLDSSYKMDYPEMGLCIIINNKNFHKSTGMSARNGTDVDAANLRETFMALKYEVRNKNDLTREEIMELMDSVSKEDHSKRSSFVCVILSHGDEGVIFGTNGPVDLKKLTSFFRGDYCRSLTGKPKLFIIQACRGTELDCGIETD
T2 sequence (P55213 176-277 limits assumed): T1 sequence (P42574 176-277 limits assumed) with V3T, H10Q, K35R, Q50L, D53H, F77L
Experimental: Rat thymocytes were cultured for 24 hours at a density of 10×10^6 cells/ml in CytoSF4 supplemented with 2 mM L-glutamine and penicillin-streptamycin and the indicated concentration of caspase inhibitors.
Denatured protein extracts in 1× Laemli buffer were resolved through a 18% acrylamide gradient SDS-PAGE gel (Invitrogen) at 30 mA in Tris-Glycine buffer. Samples labeled with [^125I]-M808 were migrated until the dye front reached 0.5 cm above the end of the gel, and acrylamide 1 cm above the dye front was cut out to remove all free [^125I]-M808 and reduce background. The gels were fixed for 45 minutes in a 40% Methanol-10% Acetic acid solution and dried for 90 min at 80° C. before exposure on MS Kodak film with MS intensifying screens. For Western blotting, proteins were transferred onto a […] nitrocellulose membrane (Invitrogen) in Tris-Glycine-20% methanol buffer at 40V for 2 hours. Non-specific protein binding was minimized by incubating the membranes for 1 hour in blocking buffer (5% non-fat milk/TBS/0.1% Tween-20). Anti-caspase-3 (W R280 and MF467) were diluted 2000-fold in blocking buffer and incubated for 1 hour at 25° C. […] Densitometry was performed using a BioRad instrument and QuantityOne software. […]

COc1ccc(-c2nc(C)no2)cc1CC(=O)N[C@H](C(=O)N[C@@H](CC(=O)O)C(=O)CSCc1ccccc1)C(C)C [Example M791, (3S)-5-(benzylthio)-3-[(N-{[2-methoxy-5-(3-methyl-1,2,4-oxadiazol-5-yl)phenyl]acetyl}-L-valyl)amino]4-oxopentanoic acid]
IC50 [1]: 0.6 nM

CCCCCN(C)CC(=O)[C@H](CC(=O)O)NC(=O)[C@H](CC)n1cc(C(C)(C)C)nc(NCc2nonc2C)c1=O [Example M867, (3S)-3-({(2S)-2-[5-tert-butyl-3-{[(4-methyl-1,2,5-oxadiazol-3-yl)methyl]amino}-2-oxopyrazin-1(2H)-yl]butanoyl}amino)-5-[methyl(pentyl)amino]-4-oxopentanoic acid]
impact on caspase-3 cleavage (caspase-3): minimal impact on caspase-3 cleavage except at the highest concentration
